Assay results: patent US11873496B2, “Methods of altering gene expression by perturbing transcription factor multimers that structure regulatory loops” (Whitehead Institute for Biomedical Research, priority 2017, dated 2024)
Blank lines part the entries; values can stand above or below the molecule they belong to.

Tests used:
AID-tagged CTCF protein [1] = target: T1, AID-tagged CTCF protein (UniProt Q61164); conditions: AID tag knocked-in at endogenous Ctcf locus; cited from earlier work
T1 construct: The AID tag was knocked-in at the endogenous Ctcf gene locus

AID-tagged CTCF protein [2] = target: T2, AID-tagged CTCF protein (UniProt P93830+Q61164+Q7XVM8); conditions: washout; cited from earlier work
T2 construct: The AID tag was knocked-in at the endogenous Ctcf gene locus

[3] = target: T3, FLAG-tagged YY1 and HA-tagged YY1 (Homo sapiens, UniProt P25490); test: Co-immunoprecipitation of FLAG-tagged and HA-tagged YY1 from nuclear extracts; format: binding, mouse; conditions: nuclear extract treated prior to immunoprecipitation
T3 construct: expressed in transfected cells; host or cells: V6.5 mESCs, transient transfection, nuclear extract
Procedure: V6.5 mESCs were transfected with pcDNA3 FLAG YY1 and pcDNA3 […] using Lipofectamine 3000 (Life Technologies #L3000001) according to the manufacturer's instructions. Briefly, cells were split and 8 million cells were plated onto a gelatinized 15 cm plate. 7.5 μg of each plasmid was mixed with 30 μL P3000 reagent and 75 μL Lipofectamine 3000 reagent (Life Technologies #L3000001) in 1250 μL of DMEM (Life technologies #11995-073). After ˜12-16 hours media was changed.
Cells were harvested 48 hours after transfection by washing twice with ice-cold PBS and collected by scraping in ice-cold PBS. Harvested cells were centrifuged at 1,000 rcf for 3 minutes to pellet cells. Supernatant was discarded and cell pellets were flash frozen and stored at −80° C. until ready to prepare nuclear extract. For each 15 cm plate of cells, frozen cell pellets were resuspended in 5 mL of ice-cold hypotonic lysis buffer (20 mM HEPES-KOH pH 7.5, 20% glycerol, 10 mM NaCl, 0.1% Triton X-100, 1.5 mM MgCl2, 0.5 mM DTT and protease inhibitor (Roche, 11697498001)) and incubated on ice for 10 minutes to extract nuclei. Nuclei were pelleted by centrifugation at 14,000 rcf for 10 minutes at 4° C. […] Protein concentration of extracts was quantified by BCA assay (Thermo Scientific, 23225) and protein concentration was adjusted to 400 μg/mL by addition of appropriate volume of 1:2 nuclear extraction buffer:dilution buffer. […]

YY1 = YY1 (Homo sapiens, UniProt P25490 P25490:1-414); test: competition; 100 nM competitor abrogated YY1-enhanced circularization of template, 20 C
Procedure: Reactions were incubated at 20° C. for 20 minutes to allow binding of YY1 to the DNA. For each timepoint 6 µL of the reaction was withdrawn and quenched in a total volume of 9 µL with a final concentration of 30 mM EDTA, 1×NEB loading dye (NEB, B7024S), 1 ug/µL of proteinase K, and heated at 65° C. for 5 minutes. Timepoint 0 was taken and then 600 units of T4 DNA ligase (NEB M0202) was added and the reaction was carried out at 20° C. Indicated timepoints were taken and then samples were run on a 4-20% TBE gradient gel for three hours at 120 V. The gel was stained with SYBR Gold (Life Technologies S11494) and imaged with a CCD camera.

Chain of YY1 (P25490 whole entry, one chain of several): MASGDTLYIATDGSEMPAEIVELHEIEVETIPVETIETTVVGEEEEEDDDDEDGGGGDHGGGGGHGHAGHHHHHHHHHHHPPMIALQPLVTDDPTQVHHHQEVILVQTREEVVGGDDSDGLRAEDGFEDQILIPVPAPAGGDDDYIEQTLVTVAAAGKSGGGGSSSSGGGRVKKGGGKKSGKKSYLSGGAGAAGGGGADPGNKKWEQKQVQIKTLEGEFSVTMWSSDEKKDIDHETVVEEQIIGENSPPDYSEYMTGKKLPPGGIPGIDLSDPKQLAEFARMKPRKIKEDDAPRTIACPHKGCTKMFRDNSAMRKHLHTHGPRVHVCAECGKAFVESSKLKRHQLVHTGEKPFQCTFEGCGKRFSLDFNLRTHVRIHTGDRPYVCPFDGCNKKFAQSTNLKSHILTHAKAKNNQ
T3 sequence (P25490 whole entry): as the sequence (P25490 whole entry, one chain of several) above
T3 sequence (P25490 whole entry): as the sequence (P25490 whole entry, one chain of several) above
T2 sequence (Q61164+P93830 fused): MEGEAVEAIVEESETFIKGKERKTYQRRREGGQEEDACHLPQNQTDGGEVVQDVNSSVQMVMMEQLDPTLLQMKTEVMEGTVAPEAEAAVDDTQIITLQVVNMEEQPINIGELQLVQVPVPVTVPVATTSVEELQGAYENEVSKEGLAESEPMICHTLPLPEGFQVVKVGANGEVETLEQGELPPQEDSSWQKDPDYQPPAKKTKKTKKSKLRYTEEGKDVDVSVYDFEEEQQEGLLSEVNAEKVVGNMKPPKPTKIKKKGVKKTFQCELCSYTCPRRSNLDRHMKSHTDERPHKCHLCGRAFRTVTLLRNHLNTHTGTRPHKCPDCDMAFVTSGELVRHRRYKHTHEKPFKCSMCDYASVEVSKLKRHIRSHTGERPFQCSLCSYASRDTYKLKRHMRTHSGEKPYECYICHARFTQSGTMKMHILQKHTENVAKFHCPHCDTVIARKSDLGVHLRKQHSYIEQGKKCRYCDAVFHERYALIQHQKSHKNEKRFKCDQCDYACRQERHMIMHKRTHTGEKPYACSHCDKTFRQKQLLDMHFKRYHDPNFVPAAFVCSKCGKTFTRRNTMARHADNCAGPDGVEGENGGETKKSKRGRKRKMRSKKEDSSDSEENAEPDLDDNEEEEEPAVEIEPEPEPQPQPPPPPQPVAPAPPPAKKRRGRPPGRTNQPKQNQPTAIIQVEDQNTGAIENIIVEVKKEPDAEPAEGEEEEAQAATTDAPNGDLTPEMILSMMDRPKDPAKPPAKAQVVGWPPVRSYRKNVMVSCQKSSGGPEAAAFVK
T2 sequence (Q7XVM8 whole entry): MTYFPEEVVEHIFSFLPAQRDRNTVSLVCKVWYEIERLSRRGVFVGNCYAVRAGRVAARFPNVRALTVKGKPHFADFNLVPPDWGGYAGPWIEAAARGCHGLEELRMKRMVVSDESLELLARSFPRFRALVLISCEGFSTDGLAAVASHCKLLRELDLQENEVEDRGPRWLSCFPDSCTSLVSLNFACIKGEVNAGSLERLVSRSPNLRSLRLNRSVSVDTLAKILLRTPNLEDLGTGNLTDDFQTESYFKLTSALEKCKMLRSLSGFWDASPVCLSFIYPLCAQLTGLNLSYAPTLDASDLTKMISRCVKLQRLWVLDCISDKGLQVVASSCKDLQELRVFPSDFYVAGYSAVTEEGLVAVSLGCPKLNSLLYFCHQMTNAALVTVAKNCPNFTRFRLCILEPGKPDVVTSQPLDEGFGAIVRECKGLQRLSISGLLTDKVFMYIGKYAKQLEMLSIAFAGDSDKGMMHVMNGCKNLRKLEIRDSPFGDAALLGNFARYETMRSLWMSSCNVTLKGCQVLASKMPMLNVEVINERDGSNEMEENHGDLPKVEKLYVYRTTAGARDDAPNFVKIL
T2 sequence (Q9WTX5 whole entry partner): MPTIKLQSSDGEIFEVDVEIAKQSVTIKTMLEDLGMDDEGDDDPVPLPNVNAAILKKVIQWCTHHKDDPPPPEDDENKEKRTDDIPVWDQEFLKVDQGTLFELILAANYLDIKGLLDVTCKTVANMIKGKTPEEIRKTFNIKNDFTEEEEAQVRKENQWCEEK
T1 sequence (Q61164+P93830 fused): as the sequence (Q61164+P93830 fused) above
T1 sequence (Q7XVM8 whole entry, further chain): as the sequence (Q7XVM8 whole entry) above
T1 sequence (Q9WTX5 whole entry partner): as the sequence (Q9WTX5 whole entry partner) above

Molecule: O=C(O)Cc1c[nH]c2ccccc12 [auxin]
CTCF protein degradation (AID-tagged CTCF protein [1]): proteasome-mediated degradation | washout time allowing recovery of CTCF protein (AID-tagged CTCF protein [2]): 2 days

reduction in the amount of co-immunoprecipitated YY1 partner protein [3]: ~60%
B1: RNase A: RNase A (Sigma, R4642) used to treat nuclear extract (protein, UniProt P61823 27-150, looked up)
Ribonuclease pancreatic: KETAAAKFERQHMDSSTSAASSSNYCNQMMKSRNLTKDRCKPVNTFVHESLADVQAVCSQKNVACKNGQTNCYQSYSTMSITDCRETGSSKYPNCAYKTTQANKHIIVACEGNPYVPVHFDASV

B2: competitor DNA with YY1 consensus sites (dsDNA)
DNA 1: GAGCAACAACAACAACGAACCGGTTCGACCTCCCCGGCCATCTTTCGACCTCCCCGGCCATCTTTCGACCTCCCCGGCCATCTTTCGACCTCCCCGGCCATCTTTCGACCTCCCCGGCCATCTTTCGACCTCCCCGGCCATCTTTCGACCTCCCCGGCCATCTTTCGACCTCCCGTCGACAGAGGCAGCAAAAGCCAGA
DNA 2: TCTGGCTTTTGCTGCCTCTGTCGACGGGAGGTCGAAAGATGGCCGGGGAGGTCGAAAGATGGCCGGGGAGGTCGAAAGATGGCCGGGGAGGTCGAAAGATGGCCGGGGAGGTCGAAAGATGGCCGGGGAGGTCGAAAGATGGCCGGGGAGGTCGAAAGATGGCCGGGGAGGTCGAACCGGTTCGTTGTTGTTGTTGCTC
binding result (YY1): binds
